These results are taken from patent publication US20240218327A1, “METHOD FOR QUICKLY AND EFFICIENTLY DIFFERENTIATING FUNCTIONAL GLIAL CELLS” (priority 2020, published 2024).

In series [1] the test system is NFIB-induced astrocytes. In words: Calcium transient assay (Fluo-4 calcium imaging). Format: cell-based, human. The method, then: To confirm whether the cells acquire the ability to change intracellular calcium concentration, gene set enrichment analysis (GSEA) was employed to validate the expression pattern of genes related to this specific function. This analysis involved comparing the ranked gene signature of day 0 cells versus day 14 cells, with genes related to calcium-mediated signaling (GO:0019722). […] Calcium imaging was conducted on cells on days 7 and 14 using Fluo-4, a calcium indicator, and the intracellular calcium transients between two time points were compared. For calcium imaging, the differentiated astrocytes were prepared on 12 mm coverslips. After replacing the cell culture medium with Hank's Balanced Salt Solution (HBSS, without calcium or magnesium) (Thermo Fisher Scientific), differentiated astrocytes were incubated with 5 μM Fluo-4 AM (Thermo Fisher Scientific) at 37° C. for 30 minutes and then washed twice with the HBSS solution before calcium imaging. Thereafter, intracellular calcium levels were analyzed using the Fluo-4 AM fluorescence dye detection method, employing a confocal microscope (Fluoview FV1000, Olympus). For this purpose, intensity images of 535 nm wavelength were captured at 488 nm excitation wavelength at a rate of one frame per 2 seconds. Intracellular calcium levels were expressed as a fluorescence ratio (F/FO), calculated as changes in the fluorescence intensity (F) after treatments with 30 μM ATP or 100 μM glutamate, compared to the initial fluorescence intensity (FO) in the resting state.

Series [2] has as its system NFIB-induced astrocytes. In words: Glutamate uptake analysis. Format: cell-based, human. To be noted: 100 µM of glutamate; after 3 hours; day 7 of differentiation; n=6. The text has this:
Uptake of excitatory neurotransmitters such as glutamate is another critical function of the astrocytes in the nervous system. This is because excessive glutamate concentration results in excitotoxic damage to the nervous tissue, potentially causing neurodegeneration. As there was a gradual upregulation of the neurotransmitter recycling protein, GLUL, in due course of gene expression (FIG. 5C, indicated by a red box with an asterisk), the ability of the NFIB-induced astrocytes to take up glutamate was assessed throughout differentiation to determine whether the ability improves. The astrocytes were exposed to 100 µM of glutamate, and the concentration of glutamate remaining in the medium was measured after 3 hours on day 7 and day 14. […] This increased uptake correlates well with the gradual increment of various genes related to neurotransmitter uptake (GO: 0001504), including SCL1A3 (a gene encoding excitatory amino acid transporter 1, also known as GLAST) and ARL6IP5 (a gene encoding glutamate transporter EEAC1-interacting protein).

The test system of series [3] is hPSC-NPCs. The text has this: FIG. 8A illustrates clustering and scaled expression patterns for differentially expressed genes (DEGs) during the differentiation process using NFIB. […] FIG. 8E and FIG. 8F quantify the percentage of cells positive for each marker on day 14 of differentiation. […] Data is presented as the mean #s.e.m. (n=3) (* p<0.05, ** p<0.01, *** p<0.001).

Consider glutamate, for which the “duration of asynchronous calcium oscillations” value in series [1] (100 μM glutamate, day 7 of differentiation) is listed as “less than 100 seconds”. Also, in series [1] (100 μM glutamate, day 7 of differentiation, n=19), the “average amplitude of calcium response” value was 4.92±0.32 F/FO. The “cells with amplitudes greater than 10” value in series [1] (100 μM glutamate, day 14 of differentiation) came to 32.4%. Also, the “amplitude of intracellular calcium peaks” value in series [1] (100 μM glutamate, day 14 of differentiation, n=26) is listed as 9.63±1.07 F/FO. In series [2], this molecule came in with a glutamate uptake of 12.34±1.17%.
Regarding `N#CC(=C(/N)Sc1ccccc1N)/C(C#N)=C(\N)Sc1ccccc1N` [U0126], in series [3] (20 μM), the cell death result is reported as “did not induce significant cell death” and the cell proliferation result is given as “tended to slightly decrease cell proliferation”. Also, the “GFAP-positive cells (astrocytes) in total cells” value in series [3] (20 μM, Treatment Condition 3: two days from day 12 to day 14 of differentiation) stood at 26.88%. Besides, in series [3] (20 μM, among treatment groups, day 14), the “number of SOX1-positive cells” value is recorded as “not significantly different among the groups”. Besides, the “morphology of GFAP-positive cells” value in series [3] (20 μM, compared with vehicle-treated group, correlated with exposure time) is “small cell body with fewer short processes”. Further, the “number of GFAP-positive cells” value in series [3] (20 μM, prolonged treatment (Treatment Condition 1 or 2), day 14) was “significantly reduced the number of GFAP-positive cells”. In series [3] (pharmacological inhibition of the MAPK signaling pathway, FIG. 8D), the “astrocyte differentiation (fluorescence images for GFAP and SOX1)” value was “robust suppression of astrocyte differentiation”.
Consider `Nc1ncnc2c1ncn2[C@@H]1O[C@H](COP(=O)(O)OP(=O)(O)OP(=O)(O)O)[C@@H](O)[C@H]1O` [ATP], for which the “cells with amplitude of calcium transients (F/FO) less than 3, among total cells” value in series [1] (30 μM ATP, day 7 of differentiation, n=70) turned out to be 84.3%. In addition, the “amplitude of calcium transients, fluorescence ratio” value in series [1] (30 μM ATP, day 14 of differentiation, all the cells tested, n=80) is recorded as at least 3 F/FO. The “duration of elevated intracellular calcium level” value in series [1] (30 μM ATP, regardless of the differentiation period (day 7 and day 14)) was at least 50 s.
